Several values for one entry are separate records, joined by “and”; a condition that tells them apart may be missing. Equal values may be shown once. Read-outs that look alike come from different tables or passages of the source.
Assays:
M3 = target: T1, M3 (Homo sapiens, UniProt P20309); assay: PDSP orthosteric binding screen
T1 construct: Psychoactive Drug Screening Program (PDSP)
From the text: (§1) Comprehensive screening of affinity for the orthosteric binding sites for numerous receptors from the Psychoactive Drug Screening Program (PDSP) have failed as yet to identify a target, despite the powerful OT-like behavioural effects of the compound evident in vivo and the clear activation of brain OT systems evident from our Fos data.

5-HT1A = target: T2, 5-HT1A (Homo sapiens, UniProt P08908); assay: PDSP orthosteric binding screen
T2 construct: Psychoactive Drug Screening Program (PDSP)
From the text: as §1

KOR = target: T3, KOR (Homo sapiens, UniProt P41145); assay: PDSP orthosteric binding screen
T3 construct: Psychoactive Drug Screening Program (PDSP)
From the text: as §1

Alpha1B = target: T4, Alpha1B (Homo sapiens, UniProt P35368); assay: PDSP orthosteric binding screen
T4 construct: Psychoactive Drug Screening Program (PDSP)
From the text: as §1

M1 = target: T5, M1 (Homo sapiens, UniProt P11229); assay: PDSP orthosteric binding screen
T5 construct: Psychoactive Drug Screening Program (PDSP)
From the text: as §1

5-HT2B = target: T6, 5-HT2B (Homo sapiens, UniProt P41595); assay: PDSP orthosteric binding screen
T6 construct: Psychoactive Drug Screening Program (PDSP)
From the text: as §1

Alpha2A = target: T7, Alpha2A (Homo sapiens, UniProt P08913); assay: PDSP orthosteric binding screen
T7 construct: Psychoactive Drug Screening Program (PDSP)
From the text: as §1

5-ht5a = target: T8, 5-ht5a (Homo sapiens, UniProt P47898); assay: PDSP orthosteric binding screen
T8 construct: Psychoactive Drug Screening Program (PDSP)
From the text: as §1

Sigma 2 = assay: PDSP orthosteric binding screen
From the text: as §1

Alpha2B = target: T9, Alpha2B (Homo sapiens, UniProt P18089); assay: PDSP orthosteric binding screen
T9 construct: Psychoactive Drug Screening Program (PDSP)
From the text: as §1

5-HT2C = target: T10, 5-HT2C (Homo sapiens, UniProt P28335); assay: PDSP orthosteric binding screen
T10 construct: Psychoactive Drug Screening Program (PDSP)
From the text: as §1

D5 = target: T11, D5 (Homo sapiens, UniProt P21918); assay: PDSP orthosteric binding screen
T11 construct: Psychoactive Drug Screening Program (PDSP)
From the text: as §1

[1] = 24-hour pharmacokinetic study, intravenous route; assay type: in vivo, male Sprague Dawley rats; settings: 20 mg/kg IV; for Vd: read-out: Vz
Procedure: A single intravenous 20 mg/kg (corresponding to ˜17.1 mg/kg expressed as the free base corrected for purity) bolus dose of SOC-1 test item formulated in Hartman's solution was administered to three adult male Sprague Dawley rats. A total of 10 blood samples were collected from each rat at time points ranging from pre-dose to 24 hours post-dose. The blood samples were subsequently processed to plasma and analysed for plasma concentrations of SOC-1 using a screening LC-MS/MS method (assay range=50-5000 ng/mL). Pharmacokinetic parameters were estimated from the plasma concentration versus time data by non-compartmental methods using Phoenix 64 WinNonlin® software.
Prior to treatments the rats were subject to surgery to cannulate the jugular vein (for dose administration, IV) and femoral artery (for blood sample collection, IA) with exteriorisation of the cannulas per test facility SOPs. Following recovery from surgery the rats were transferred to a Culex system for dose administration and blood sampling (with both lines tended per test facility SOPs).
The intravenous treatments were administered via the jugular cannula with a dosing volume of 4.0 mL/kg on the day following surgery. The treatments were followed by ˜200 μL vehicle to ensure a full dose was delivered to the animals.
Blood samples (˜250 μl) were collected in lithium heparin tubes from the IA cannula at the following time points: pre-dose, 2, 5, 10, 30, 60 minutes, 2, 4, 8 and 24 hours post-dose
Blood samples were kept on ice immediately after collection to minimize degradation and centrifuged as soon as possible at approximately 4000×rcf for 10 min. Pre-dose samples were centrifuged separately prior to dosing. The plasma was then transferred to polypropylene tubes and stored frozen at −80° C.
Plasma concentrations of SOC-1 were determined using a screening LC-MS/MS method with a following liquid/liquid extraction. Briefly, 50 μL aliquots of the test samples and calibration standards were mixed with 1 mL of hexane:dichloromethane (1:1) for 5 minutes following the addition of 10 μl of internal standard, then centrifuged and the organic phase decanted and dried under nitrogen. The samples were then reconstituted with 0.5 mL of 0.1% formic acid in 30% methanol in deionised water and 0.2 mL transferred to a 96 well plate. A 5 μL aliquot of this sample was then analysed using an ABSciex API 4000 MS/MS coupled to a Shimadzu Prominence HPLC. The HPLC gradients included 0.1% formic acid in deionised water (Mobile Phase A) and 0.1% formic acid in methanol (Mobile Phase B). The LC-MS/MS instrument settings are summarised in Appendix 2. The samples were analysed with calibrated samples (50 to 5000 ng/mL) and concentration data determined by back calculation from the standard curve.
Group mean±standard error values for plasma concentration versus time values were determined using Phoenix 64 WinNonlin software. The following pharmacokinetic parameters were also calculated by non-compartmental methods, using Phoenix 64 WinNonlin software: • Rsq—Coefficient of association for the terminal elimination phase (R2). • Lambda—Terminal elimination rate constant associated with the terminal (log-linear) portion of the curve (1/h). • T1/2—Terminal elimination half-life (h) • C0—Initial concentration at time 0 min (ng/mL) determined by back-extrapolating from the first two measured concentration values. • Tmax—Time to maximum plasma concentration following extravascular administration. • Cmax—Maximum plasma concentration following extravascular administration • AUClast—Area under the curve from the time of dosing (Dosing time, time 0 min) to the last measurable concentration (ng·h/mL). • AUCinf—AUC from Dosing time extrapolated to infinity, based on the last observed concentration (obs). (ng·h/mL). • AUC % Extrap—Percentage of AUCinf due to extrapolation from time of last measurable concentration to infinity. • Vz—Volume of distribution (L/kg). • Cl—Total body clearance (L/h/kg). […]

[2] = male, Sprague Dawley, rat, in vivo, Mean, N 3
[3] = male, Sprague Dawley, rat, plasma, iv, 20 mg/kg, individual rats

T4 sequence (P35368 whole entry): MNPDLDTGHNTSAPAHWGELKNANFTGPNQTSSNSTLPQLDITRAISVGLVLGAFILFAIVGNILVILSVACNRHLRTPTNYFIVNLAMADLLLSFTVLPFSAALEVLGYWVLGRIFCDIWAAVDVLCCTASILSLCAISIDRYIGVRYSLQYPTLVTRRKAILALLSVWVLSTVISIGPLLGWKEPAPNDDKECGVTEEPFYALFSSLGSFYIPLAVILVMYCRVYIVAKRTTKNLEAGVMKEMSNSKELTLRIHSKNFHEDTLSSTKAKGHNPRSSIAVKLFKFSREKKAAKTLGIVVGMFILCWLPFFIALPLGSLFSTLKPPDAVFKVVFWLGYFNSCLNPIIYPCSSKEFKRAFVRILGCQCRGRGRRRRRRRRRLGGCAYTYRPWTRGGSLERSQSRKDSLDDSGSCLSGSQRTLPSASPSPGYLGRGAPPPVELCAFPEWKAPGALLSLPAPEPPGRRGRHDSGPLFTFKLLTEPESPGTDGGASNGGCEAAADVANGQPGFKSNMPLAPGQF
T10 sequence (P28335 33-458, species assumed): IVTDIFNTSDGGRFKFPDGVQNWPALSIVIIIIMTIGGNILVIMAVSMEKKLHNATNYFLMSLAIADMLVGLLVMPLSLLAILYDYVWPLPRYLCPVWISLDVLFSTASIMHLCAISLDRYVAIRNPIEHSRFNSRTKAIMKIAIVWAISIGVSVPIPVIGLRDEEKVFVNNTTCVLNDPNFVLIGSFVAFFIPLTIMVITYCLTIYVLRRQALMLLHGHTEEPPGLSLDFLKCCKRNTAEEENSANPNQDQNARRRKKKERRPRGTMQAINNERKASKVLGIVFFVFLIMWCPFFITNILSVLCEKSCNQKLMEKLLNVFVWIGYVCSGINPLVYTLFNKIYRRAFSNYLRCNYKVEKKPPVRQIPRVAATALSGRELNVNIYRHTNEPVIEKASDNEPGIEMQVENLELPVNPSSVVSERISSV
T7 sequence (P08913 whole entry): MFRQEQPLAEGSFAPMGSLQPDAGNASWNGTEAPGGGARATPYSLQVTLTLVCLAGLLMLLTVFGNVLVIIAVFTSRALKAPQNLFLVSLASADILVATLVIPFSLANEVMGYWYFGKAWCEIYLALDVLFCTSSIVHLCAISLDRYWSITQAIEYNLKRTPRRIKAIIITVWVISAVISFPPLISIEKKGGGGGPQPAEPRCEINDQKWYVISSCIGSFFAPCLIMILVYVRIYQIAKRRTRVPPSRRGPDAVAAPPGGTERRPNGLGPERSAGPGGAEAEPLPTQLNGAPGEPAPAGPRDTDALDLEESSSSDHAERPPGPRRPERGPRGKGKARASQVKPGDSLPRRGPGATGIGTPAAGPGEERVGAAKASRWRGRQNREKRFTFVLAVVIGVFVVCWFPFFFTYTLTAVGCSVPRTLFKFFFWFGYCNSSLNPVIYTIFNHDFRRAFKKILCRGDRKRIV
T6 sequence (P41595 whole entry, species assumed): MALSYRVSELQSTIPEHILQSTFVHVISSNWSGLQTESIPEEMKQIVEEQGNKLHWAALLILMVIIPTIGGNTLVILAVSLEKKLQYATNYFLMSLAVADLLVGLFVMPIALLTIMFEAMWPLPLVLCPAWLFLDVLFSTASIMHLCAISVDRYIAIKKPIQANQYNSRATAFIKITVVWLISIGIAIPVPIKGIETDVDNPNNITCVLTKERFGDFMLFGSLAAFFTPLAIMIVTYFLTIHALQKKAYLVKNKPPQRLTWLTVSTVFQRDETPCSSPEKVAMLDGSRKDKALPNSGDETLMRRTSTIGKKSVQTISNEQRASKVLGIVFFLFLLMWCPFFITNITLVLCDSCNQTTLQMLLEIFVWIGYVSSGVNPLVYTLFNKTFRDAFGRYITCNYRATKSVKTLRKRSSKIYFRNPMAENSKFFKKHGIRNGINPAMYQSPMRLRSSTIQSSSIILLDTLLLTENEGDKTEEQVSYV
T5 sequence (P11229 whole entry): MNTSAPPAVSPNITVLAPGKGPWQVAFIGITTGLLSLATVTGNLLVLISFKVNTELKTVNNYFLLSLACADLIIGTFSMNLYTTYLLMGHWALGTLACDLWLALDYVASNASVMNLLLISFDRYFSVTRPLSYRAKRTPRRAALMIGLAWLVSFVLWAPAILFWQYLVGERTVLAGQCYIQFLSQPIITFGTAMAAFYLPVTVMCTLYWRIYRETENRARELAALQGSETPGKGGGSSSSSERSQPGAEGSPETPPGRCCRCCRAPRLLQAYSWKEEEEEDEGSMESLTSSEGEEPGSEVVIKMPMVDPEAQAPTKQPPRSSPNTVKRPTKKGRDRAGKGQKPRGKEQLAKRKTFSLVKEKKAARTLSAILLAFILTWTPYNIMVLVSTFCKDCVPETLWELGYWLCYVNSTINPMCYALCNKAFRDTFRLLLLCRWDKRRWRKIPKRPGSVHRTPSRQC
T3 sequence (P41145 whole entry): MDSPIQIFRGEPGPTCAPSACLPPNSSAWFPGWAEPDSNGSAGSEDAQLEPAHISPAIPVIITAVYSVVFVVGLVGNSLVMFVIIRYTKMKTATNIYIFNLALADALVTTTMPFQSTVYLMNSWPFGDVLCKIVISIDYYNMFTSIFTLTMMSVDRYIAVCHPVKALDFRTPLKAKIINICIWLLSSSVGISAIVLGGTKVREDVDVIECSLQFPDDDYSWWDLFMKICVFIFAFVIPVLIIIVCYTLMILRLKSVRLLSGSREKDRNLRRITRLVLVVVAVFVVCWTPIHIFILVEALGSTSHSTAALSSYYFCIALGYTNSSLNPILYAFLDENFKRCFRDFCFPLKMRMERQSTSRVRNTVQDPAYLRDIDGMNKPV
T9 sequence (P18089 whole entry): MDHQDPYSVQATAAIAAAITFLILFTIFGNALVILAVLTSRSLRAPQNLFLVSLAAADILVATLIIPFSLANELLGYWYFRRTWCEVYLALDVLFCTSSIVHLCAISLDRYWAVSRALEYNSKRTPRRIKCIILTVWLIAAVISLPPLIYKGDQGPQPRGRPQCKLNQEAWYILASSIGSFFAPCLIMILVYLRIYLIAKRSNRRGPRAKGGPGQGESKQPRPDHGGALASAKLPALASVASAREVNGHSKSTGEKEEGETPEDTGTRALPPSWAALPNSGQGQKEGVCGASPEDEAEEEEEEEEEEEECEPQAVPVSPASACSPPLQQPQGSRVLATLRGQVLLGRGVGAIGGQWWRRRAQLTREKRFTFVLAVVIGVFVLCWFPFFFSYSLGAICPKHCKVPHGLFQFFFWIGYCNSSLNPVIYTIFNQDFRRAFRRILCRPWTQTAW
T8 sequence (P47898 whole entry, species assumed): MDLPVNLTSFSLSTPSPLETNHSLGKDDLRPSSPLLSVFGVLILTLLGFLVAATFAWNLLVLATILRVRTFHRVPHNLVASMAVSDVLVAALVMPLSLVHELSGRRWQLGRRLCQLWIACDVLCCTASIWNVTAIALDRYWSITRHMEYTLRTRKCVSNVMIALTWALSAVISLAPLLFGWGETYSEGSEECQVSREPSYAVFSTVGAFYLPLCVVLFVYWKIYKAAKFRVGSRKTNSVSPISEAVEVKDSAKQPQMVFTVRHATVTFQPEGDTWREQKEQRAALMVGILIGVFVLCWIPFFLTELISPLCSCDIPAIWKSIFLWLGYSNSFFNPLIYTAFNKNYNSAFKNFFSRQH
T11 sequence (P21918 whole entry): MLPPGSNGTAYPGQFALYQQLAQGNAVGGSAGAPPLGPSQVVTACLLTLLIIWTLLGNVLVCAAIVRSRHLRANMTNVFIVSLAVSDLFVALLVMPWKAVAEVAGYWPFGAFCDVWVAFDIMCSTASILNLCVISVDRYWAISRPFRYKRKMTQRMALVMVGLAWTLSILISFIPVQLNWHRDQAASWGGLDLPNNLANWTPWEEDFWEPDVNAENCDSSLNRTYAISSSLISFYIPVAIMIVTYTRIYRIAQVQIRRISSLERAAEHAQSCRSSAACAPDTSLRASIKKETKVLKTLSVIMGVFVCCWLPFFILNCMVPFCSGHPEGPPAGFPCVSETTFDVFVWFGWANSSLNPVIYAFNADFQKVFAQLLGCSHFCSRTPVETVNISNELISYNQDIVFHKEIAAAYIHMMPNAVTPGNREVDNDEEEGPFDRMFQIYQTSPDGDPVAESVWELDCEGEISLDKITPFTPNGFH
T2 sequence (P08908 whole entry, species assumed): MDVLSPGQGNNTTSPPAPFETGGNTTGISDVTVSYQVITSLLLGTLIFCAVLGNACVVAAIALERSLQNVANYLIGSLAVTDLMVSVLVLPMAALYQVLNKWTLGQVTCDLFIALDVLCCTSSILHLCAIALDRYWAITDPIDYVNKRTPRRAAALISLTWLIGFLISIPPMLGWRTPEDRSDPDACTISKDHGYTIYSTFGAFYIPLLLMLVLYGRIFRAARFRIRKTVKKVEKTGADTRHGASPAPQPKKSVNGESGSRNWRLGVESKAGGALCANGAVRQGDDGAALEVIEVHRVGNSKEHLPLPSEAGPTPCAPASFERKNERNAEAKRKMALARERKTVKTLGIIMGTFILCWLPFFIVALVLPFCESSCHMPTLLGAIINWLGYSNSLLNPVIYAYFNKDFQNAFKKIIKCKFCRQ

## Cl.Cn1ncc2c1Nc1ccccc1NC2 [SOC-1]
M3
  affinity for M3: no notable affinity
5-HT1A
  affinity for 5-HT1A: no notable affinity
KOR
  affinity for KOR: no notable affinity
Alpha1B
  affinity for Alpha1B: no notable affinity
M1
  affinity for M1: no notable affinity
5-HT2B
  affinity for 5-HT2B: no notable affinity
Alpha2A
  affinity for Alpha2A: no notable affinity
5-ht5a
  affinity for 5-ht5a: no notable affinity
Sigma 2
  affinity for Sigma 2: no notable affinity
Alpha2B
  affinity for Alpha2B: no notable affinity
5-HT2C
  affinity for 5-HT2C: no notable affinity
D5
  affinity for D5: no notable affinity
[1]
  tolerability, morbidity or mortality: tolerated and there were no findings of morbidity or mortality
[1]; 2 minutes post-dose, individual rats #1-#3
  Plasma SOC-1: 12600 ng/mL and 16500 ng/mL
[1]; 5 minutes post-dose, individual rats #1-#3
  Plasma SOC-1: 13100 ng/mL and 12200 ng/mL
[1]; 10 minutes post-dose, individual rats #1-#3
  Plasma SOC-1: 10900 ng/mL and 11700 ng/mL
[1]; 30 minutes post-dose, individual rats #1-#3
  Plasma SOC-1: 8790 ng/mL and 8120 ng/mL
[1]; 1 hour (60 minutes) post-dose, individual rats #1-#3
  Plasma SOC-1: 6480 ng/mL and 6310 ng/mL
[1]; 2 hours post-dose, individual rats #1-#3
  Plasma SOC-1: 3610 ng/mL and 2980 ng/mL
[1]; 4 hours post-dose, individual rats #1-#3
  Plasma SOC-1: 115 ng/mL and 286 ng/mL and 97.3 ng/mL
[1]; 8 hours post-dose, individual rats #1-#3
  Plasma SOC-1: BLOQ^a) (below lower limit of quantitation of 50 ng/mL)
[1]; 24 hours post-dose, individual rats #1-#3
  Plasma SOC-1: BLOQ^a) (below lower limit of quantitation of 50 ng/mL)
[1]; Mean, N 3
  AUC % Extrap: 0.803%
  Lambda: 1.28 h⁻¹
[1]; individual rats
  AUC % Extrap: 0.559% and 1.45% and 0.398%
  AUCinf: 18400 ng·h/mL and 17000 ng·h/mL
  AUClast: 18100 ng·h/mL and 17000 ng·h/mL
  C0: 12600 ng/mL and 20100 ng/mL
  Cl: 15.5 mL/min/kg and 16.7 mL/min/kg
  Lambda: 1.33 h⁻¹ and 1.07 h⁻¹ and 1.44 h⁻¹
  T1/2: 38.8 min and 29 min
  Vz: 0.868 L/kg and 0.699 L/kg
[1]; [2]
  AUC(0-inf): 17000 ng·h/mL
  clearance: 16.8 mL/min/kg
  half-life: 33 min
  Vd: 0.799 L/kg
[1]; male, Sprague Dawley, rat, in vivo, Mean, N 3, read-out: C0
  C0: 18200 ng/mL
[1]; male, Sprague Dawley, rat, plasma, intravenous, 20 mg/kg, 2 minutes post-dose, individual rats #1-#3, read-out: Plasma SOC-1
  concentration at 2 min: 17200 ng/mL
[1]; male, Sprague Dawley, rat, plasma, intravenous, 20 mg/kg, 5 minutes post-dose, individual rats #1-#3, read-out: Plasma SOC-1
  concentration at 5 min: 11900 ng/mL
[1]; male, Sprague Dawley, rat, plasma, intravenous, 20 mg/kg, 10 minutes post-dose, individual rats #1-#3, read-out: Plasma SOC-1
  concentration at 10 min: 12800 ng/mL
[1]; male, Sprague Dawley, rat, plasma, intravenous, 20 mg/kg, 30 minutes post-dose, individual rats #1-#3, read-out: Plasma SOC-1
  concentration at 30 min: 7120 ng/mL
[1]; male, Sprague Dawley, rat, plasma, intravenous, 20 mg/kg, 1 hour (60 minutes) post-dose, individual rats #1-#3, read-out: Plasma SOC-1
  concentration at 1 h: 5720 ng/mL
[1]; male, Sprague Dawley, rat, plasma, intravenous, 20 mg/kg, 2 hours post-dose, individual rats #1-#3, read-out: Plasma SOC-1
  concentration at 2 h: 2310 ng/mL
[1]; male, Sprague Dawley, rat, plasma, iv, 20 mg/kg, Mean, N 3
  AUC(0-t): 16800 ng·h/mL
[1]; [3]
  AUC(0-inf): 15500 ng·h/mL
  AUC(0-t): 15400 ng·h/mL
  clearance: 18.5 mL/min/kg
  half-life: 31.3 min
  Vd: 0.831 L/kg
[1]; male, Sprague Dawley, rat, plasma, iv, 20 mg/kg, individual rats, read-out: C0
  C0: 21900 ng/mL

— patent publication US11890287B2, “Therapeutic compounds and compositions for treating social disorders and substance use disorders” (Kinoxis Therapeutics Pty Ltd, priority 2015, dated 2024)
